The data set in a line: Pharmacokinetic studies in male Sprague-Dawley rats. Type of data set: in vivo. Conditions: rat; for clearance / half-life / Cmax: male, Sprague-Dawley, plasma; for half-life: read-out: t½. The protocol:
Pharmacokinetic properties of select compounds were assessed in male Sprague-Dawley rats.
The non-GLP study was designed to investigate the pharmacokinetics of chosen compounds in plasma following an intravenous or oral dose administration to male Sprague Dawley rats. […]
Animals in the PO group were fasted overnight prior to dose administration. Food was returned following the collection of the 4-hour blood sample. Water was not withheld.
Immediately prior to dosing, the body weight of each animal was recorded. Doses (rounded to the nearest 0.001 mL) were calculated based on the pretreatment body weight (kg) and a dose volume of 2.5 mL/kg for intravenous administration and 5 mL/kg for oral administration. Intravenous formulations were administered via a jugular vein cannula. Immediately after dosing, the cannula was flushed with saline and the line was tied off. The oral dose was administered via a ball-tipped feeding needle. Dosing syringe volumes for administration were second-person verified prior to dosing and that volume along with the results for the concentration verification analysis were used to calculate the actual dose administered. Dosing syringes were weighed immediately prior to and immediately after dosing each animal as a gravimetric check.
Serial blood samples (approximately 200 μL per sample) were collected from each animal at 0.083 (IV dosing only), 0.25, 0.5, 1, 2, 4, 6 (PO dosing only), 8, 24, 32, 48, and 72 hours after dosing. Blood samples were collected into tubes containing K2EDTA via the non-dosing jugular-vein cannula (JVC), which was flushed with an approximately equal volume of saline following each collection.
Blood samples were stored on wet ice until processed to plasma by centrifugation (3500 rpm at 5° C. for 10 minutes) within 1 hour of collection. Plasma samples were transferred into matrix tubes and then stored in a −80° C. freezer.
Plasma samples and dose formulation samples were analyzed for the compounds of interest using liquid chromatography-tandem mass spectrometry (LC-MS/MS) methods. Pharmacokinetic parameter estimates were calculated from the individual animal plasma concentration-time data using the actual dose based on the analysis of the dosing formulations, nominal sampling times (all collections were within an acceptable range of target), and non-compartmental methods. The concentration-time data were analyzed to fit either an intravenous-bolus (IV) plasma analysis model (201) or extra-vascular (P0) dosing plasma analysis model (200) using the software WinNonlin Phoenix version 6.3 (Pharsight). The single-dose pharmacokinetic parameters assessed include, as appropriate: Cmax (observed peak or maximum concentration); Tmax (observed time of peak concentration); T1/2 (terminal half-life); Vz (volume of distribution based on the terminal phase); Vss (volume of distribution at steady state); AUCINF (area under the concentration-time curve computed from time zero to infinity); AUClast (area under the concentration-time curve computed from time zero to the time of the last quantifiable concentration); C0 (back-extrapolated concentration at time zero); CL (total body clearance); Vz/F (volume of distribution for extravascular administration based on the terminal phase); CL/F (total body clearance for extravascular administration); F % (bioavailability); and MRTlast (mean residence time).
Areas-under-the-plasma concentration-time curves (AUC) were estimated using the linear-log trapezoidal rule. The area through the time (Tlast) of the last observable concentration (Clast) is reported as AUClast. AUC extrapolated to infinity, (AUCINF) was estimated by adding AUClast and the ratio of Clast/λz, where λz is the terminal rate constant. Apparent terminal half-life (T1/2) was calculated as ln(2)/λz and determined using the slope of the log-linear terminal phase of the concentration-time curve, defined by a minimum of three plasma concentration-time points. […]

Like-named read-outs stand apart in the source and are kept apart here.

As usually defined, the clearance is a measure of how efficiently the substance is removed, as volume per time. A higher clearance goes with efficient removal. What is called Cmax is the highest concentration seen after dosing. Consider `COc1cc2nccc(Oc3ccc(NC(=O)C4(C(=O)Nc5ccc(F)cc5)CC4)cc3)c2cc1C(N)=O` [Compound 7, 1-N-[4-(6-carbamoyl-7-methoxyquinolin-4-yl)oxyphenyl]-1-N′-(4-fluorophenyl)cyclopropane-1,1-dicarboxamide], for which, where the note is “IV (1 mg/kg)”, the clearance turned out to be 0.089 L/h/kg and the half-life turned out to be 3.1 h. Where the note is “PO (3 mg/kg)”, the highest level (Cmax) was 8.8 µM and the half-life was 7.3 h.

Turning to `CCNC(=O)c1cc2c(Oc3ccc(NC(=O)C4(C(=O)Nc5ccc(F)cc5)CC4)cc3)ccnc2cc1OC` [Compound 9, 1-N-[4-[6-(ethylcarbamoyl)-7-methoxyquinolin-4-yl]oxyphenyl]-1-N′-(4-fluorophenyl)cyclopropane-1,1-dicarboxamide], for the setting “IV (3 mg/kg)”, the clearance amounted to 0.152 L/h/kg and the half-life was determined as 2.8 h. In addition, for the setting “PO (3 mg/kg)”, the highest level (Cmax) was 3.9 µM, the half-life is 2.6 h and the F entry is “F = 69%”.

In the case of `CNC(=O)c1cc2c(Oc3ccc(NC(=O)C4(C(=O)Nc5ccc(F)cc5)CC4)cc3)ccnc2cc1OC` [Compound 8, 1-N′-(4-fluorophenyl)-1-N-[4-[7-methoxy-6-(methylcarbamoyl)quinolin-4-yl]oxyphenyl]cyclopropane-1,1-dicarboxamide], where the note is “IV (3 mg/kg)”, the clearance is 0.043 L/h/kg and the half-life amounted to 5.4 h. For the setting “PO (3 mg/kg)”, the Cmax was determined as 11.4 µM and the half-life worked out at 7.1 h.

For `COc1cc2nccc(Oc3ccc(NC(=O)C4(C(=O)Nc5ccc(F)cc5)CC4)cc3)c2cc1S(N)(=O)=O` [Compound 206, 1-N′-(4-Fluorophenyl)-1-N-[4-(7-methoxy-6-sulfamoylquinolin-4-yl)oxyphenyl]cyclopropane-1,1-dicarboxamide], where the note is “IV (3 mg/kg)”, the clearance came out at 0.511 L/h/kg and the half-life came to 2.1 h. Moreover, where the note is “PO (3 mg/kg)”, the highest concentration (Cmax) came out at 0.7 µM, the half-life was 2.9 h and the F result is reported as “F = 37%”.

Consider `CONC(=O)c1cc2c(Oc3ccc(NC(=O)C4(C(=O)Nc5ccc(F)cc5)CC4)cc3)ccnc2cc1OC` [Compound 17, 1-N′-(4-fluorophenyl)-1-N-[4-[7-methoxy-6-(methoxycarbamoyl)quinolin-4-yl]oxyphenyl]cyclopropane-1,1-dicarboxamide], for which, for the setting “IV (3.0 mg/kg)”, the clearance turned out to be 0.102 L/h/kg and the half-life turned out to be 3 h. For the same compound, where the note is “PO (3.2 mg/kg)”, the maximum concentration (Cmax) stood at 3.4 µM, the half-life stood at 4.5 h and the F result is listed as “F = 46%”.

As to `COc1cc2nccc(Oc3ccc(NC(=O)C4(C(=O)Nc5ccc(F)cc5)CC4)cc3)c2cc1-c1ncco1` [Compound 45, 1-N′-(4-fluorophenyl)-1-N-[4-[7-methoxy-6-(1,3-oxazol-2-yl)quinolin-4-yl]oxyphenyl]cyclopropane-1,1-dicarboxamide], where the note is “IV (1 mg/kg)”, the clearance stood at 0.041 L/h/kg and the half-life was found to be 10.1 h. Also, under “PO (3 mg/kg)”, the highest level (Cmax) was 15.3 µM and the half-life worked out at 5.7 h.

Turning to `COc1cc2nccc(Oc3ccc(NC(=O)C4(C(=O)Nc5ccc(F)cc5)CC4)cc3)c2cc1-c1ncc[nH]1` [Compound 191, 1-N′-(4-Fluorophenyl)-1-N-[4-[6-(1H-imidazol-2-yl)-7-methoxyquinolin-4-yl]oxyphenyl]cyclopropane-1,1-dicarboxamide], where the note is “IV (3.0 mg/kg)”, the clearance stood at 0.063 L/h/kg and the half-life was 9.9 h. For the setting “PO (3.1 mg/kg)”, the Cmax came out at 4.6 µM, the half-life amounted to 6.8 h and the F result is listed as “F = 38%”.

The record behind these values is patent US11542259B2, “Compounds for the treatment of kinase-dependent disorders” (Exelixis, Inc., priority 2018, dated 2023).
